Reference: US9006191B2, “Silencing of polo-like kinase expression using interfering RNA” (Protiva Biotherapeutics, Inc., priority 2007, dated 2015)

Legend:
IFIT1 mRNA, serum IFNα = assay: In vivo immune stimulation assay in Balb/c mice (IFIT1 mRNA, serum IFNα); conditions: SNALP-formulated siRNA IV
Protocol: Balb/c mice (n=4 per group) were administered 2.5 mg/kg siRNA or lipid vehicle; serum IFNα (pg/mL) and IFIT1 mRNA (relative to GAPDH) from whole liver lysates were assessed after 4, 8, and 16 h by ELISA and bDNA assay, respectively. […] (b) Serum IFNα and (c) liver IFIT1 mRNA were assessed 4 h after administration (mean+SD, n=4).
SNALP-formulated Luc (unmodified) and the 2′OMe-modified Luc-U/U, PLK1424-2/A, PLK773-1/B, or KSP2263-U/U siRNA were administered at 2 mg/kg i.v. to Balb/C mice. (A) IFIT1 relative to GAPDH mRNA in liver and spleen was assessed at 4 h by bDNA analysis. […] Serum IFNα was assessed at 6 h by ELISA. […] Values represent mean+SD (n=4).
IFIT1 mRNA and serum cytokines were assessed 4-6 h after SNALP administration based on the approximate time of peak response for these markers. In these studies, SNALP-formulated native Luc siRNA (Table 6) was used as a positive control for immune stimulation.
In vivo immune stimulation assays. […] 6-8 week old Balb/C mice were obtained from Harlan and subject to a two week acclimation period prior to use. Mice were administered SNALP formulated siRNA (2 mg/kg) in PBS via standard intravenous injection in the lateral tail vein. Blood was collected by cardiac puncture and processed as plasma for cytokine analysis. Liver and spleen were collected into RNALater (Sigma Co.) for IFIT1 mRNA analysis.
Measurement of IFIT1 mRNA in mouse tissues. Murine liver and spleen were processed for bDNA assay to quantitate IFIT1 mRNA as described above. The IFIT1 probe set was specific to mouse IFIT1 mRNA (positions 4-499 of NM—008331) and the GAPDH probe set was specific to mouse GAPDH mRNA (positions 9-319 of NM—008084). Data is shown as the ratio of IFIT1 relative light units (RLU) to GAPDH RLU.
Cytokine ELISA. All cytokines were quantified using sandwich ELISA kits. These were mouse interferon-α (PBL Biomedical; Piscataway, N.J.) and human and mouse IL-6 (BD Biosciences; San Diego, Calif.).

HT29 cells = assay: HT29 cell viability assay (CellTiter-Blue); assay type: cell-based, human; conditions: HT29 cells, SNALP-formulated siRNA at a range of siRNA concentrations, viability at 72 h relative to PBS
Protocol: (§1) Various PLK-1 siRNAs were formulated as SNALP (“2:40” SNALP formulation: 2% PEG-cDMA; 40% DLinDMA; 10% DSPC; and 48% cholesterol) and evaluated for their inhibitory effects on cell growth in vitro. HT29 (human colon adenocarcinoma) or Neuro2A (mouse neuroblastoma) cells were treated with various PLK-1 SNALP at a range of siRNA concentrations and their effect on cell viability was evaluated. Viability of cell cultures is expressed as % viability relative to PBS treated controls.
Additional PLK-1 siRNA molecules were formulated as SNALP (“2:40” SNALP formulation: 2% PEG-cDMA; 40% DLinDMA; 10% DSPC; and 48% cholesterol) and evaluated for their inhibitory effects on cell growth in vitro. HT29 or Neuro2A cells were plated in triplicate at 5000 cells/well and 2500 cells/well, respectively. PLK-1 SNALP dosages were as follows: 25 nM; 5 nM; and 1 nM. Cell viability analysis was performed at 72 hours following transfection. SNALP containing a non-targeting (GFP) siRNA were used as a negative control. […]
PLK-1 siRNA molecules containing 2′-O-methyl (2′OMe) nucleotides at selective positions within the double-stranded region of the siRNA duplex were formulated as SNALP (“2:40” SNALP formulation: 2% PEG-cDMA; 40% DLinDMA; 10% DSPC; and 48% cholesterol) and evaluated for their inhibitory effects on cell growth in vitro. HT29 cells were plated in triplicate at 5000 cells/well. Cell viability analysis was performed at 72 hours following transfection with a range of PLK-1 SNALP dosages. SNALP containing a non-targeting (GFP) siRNA were used as a negative control.
Cell viability assays. […] Cell viability analysis was performed at 72 hours following transfection with a range of PLK-1 SNALP dosages.

Neuro2A cells = assay: Neuro2A cell viability assay (CellTiter-Blue); assay type: cell-based; conditions: mouse Neuro2A cells, SNALP-formulated siRNA, viability at 72 h relative to PBS
Protocol: as §1
Additional PLK-1 siRNA molecules were formulated as SNALP (“2:40” SNALP formulation: 2% PEG-cDMA; 40% DLinDMA; 10% DSPC; and 48% cholesterol) and evaluated for their inhibitory effects on cell growth in vitro. HT29 or Neuro2A cells were plated in triplicate at 5000 cells/well and 2500 cells/well, respectively. PLK-1 SNALP dosages were as follows: 25 nM; 5 nM; and 1 nM. Cell viability analysis was performed at 72 hours following transfection. SNALP containing a non-targeting (GFP) siRNA were used as a negative control.
Additional PLK-1 siRNA molecules were formulated as SNALP (“2:40” SNALP formulation: 2% PEG-cDMA; 40% DLinDMA; 10% DSPC; and 48% cholesterol) and evaluated for their inhibitory effects on cell growth in vitro. HT29 or Neuro2A cells were plated in triplicate at 5000 cells/well and 2500 cells/well, respectively. PLK-1 SNALP dosages were as follows: 30 nM; 10 nM; and 3.3 nM. Cell viability analysis was performed at 72 hours following transfection. SNALP containing a non-targeting (GFP) siRNA were used as a negative control.

U(S)-ApoB1: ApoB-1 siRNA with 2′OMe-modified sense strand, SEQ ID NO:284/285 (sense GNCANCACACNGAANACCAAN; antisense AUUGGUAUUCAGUGUGAUGACAC; 2'-OMe on sense strand, chemistry not fully specified)
serum IFNα / serum cytokine response (IFIT1 mRNA, serum IFNα; 4-6 h): no measurable serum cytokine response
IFIT1 mRNA induction in liver and spleen (IFIT1 mRNA, serum IFNα; 4 h): induction of IFN-inducible p56 IFIT1 mRNA in the liver and spleen

PLK772: siRNA to human PLK-1, SEQ ID NO:11/12 (chain 1 GAGACCUACCUCCGGAUCA; chain 2 UGAUCCGGAGGUAGGUCUC; listed as RNA, chemistry not given here)
cell viability / killing of human tumor cells (HT29 cells): effective at killing human tumor cells

PLK1233: siRNA to human PLK-1, SEQ ID NO:25/26 (chain 1 CAGCAAGUGGGUGGACUAU; chain 2 AUAGUCCACCCACUUGCUG; listed as RNA, chemistry not given here)
cell viability / killing of human tumor cells (HT29 cells): effective at killing human tumor cells

mPLK1608: siRNA to mouse PLK-1, SEQ ID NO:45/46 (chain 1 GGACCACACCAAACUUAUC; chain 2 GAUAAGUUUGGUGUGGUCC; listed as RNA, chemistry not given here)
cell viability / inhibition of cell growth (Neuro2A cells): most active mouse-specific PLK-1 siRNA sequences

mPLK1425: siRNA to mouse PLK-1, SEQ ID NO:37/38 (chain 1 GAUCACUCUCCUCAACUAU; chain 2 AUAGUUGAGGAGAGUGAUC; listed as RNA, chemistry not given here)
cell viability / inhibition of cell growth (Neuro2A cells): most active mouse-specific siRNA sequences

PLK1229: siRNA to human PLK-1, SEQ ID NO:21/22 (chain 1 GGGUCAGCAAGUGGGUGGA; chain 2 UCCACCCACUUGCUGACCC; listed as RNA, chemistry not given here)
cell viability / killing of human tumor cells (HT29 cells): effective at killing human tumor cells
cell viability / inhibition of cell growth (Neuro2A cells): most potent human/mouse cross-reactive siRNA molecules

PLK832: siRNA to human PLK-1, SEQ ID NO:13/14 (chain 1 GCCGCCUCCCUCAUCCAGA; chain 2 UCUGGAUGAGGGAGGCGGC; listed as RNA, chemistry not given here)
cell viability / killing of human tumor cells (HT29 cells): effective at killing human tumor cells

PLK1232: siRNA to human PLK-1, SEQ ID NO:23/24 (chain 1 UCAGCAAGUGGGUGGACUA; chain 2 UAGUCCACCCACUUGCUGA; listed as RNA, chemistry not given here)
cell viability / killing of human tumor cells (HT29 cells): effective at killing human tumor cells
cell viability / inhibition of cell growth (Neuro2A cells): most potent human/mouse cross-reactive siRNA molecule

PLK1345: siRNA to human PLK-1, SEQ ID NO:29/30 (chain 1 GACAGCCUGCAGUACAUAG; chain 2 CUAUGUACUGCAGGCUGUC; listed as RNA, chemistry not given here)
cell viability / killing of human tumor cells (HT29 cells): inhibited the growth of human tumor cells, but at higher siRNA concentrations
cell viability / inhibition of cell growth (Neuro2A cells): effective at inhibiting the growth of mouse Neuro2A cells at higher siRNA concentrations

PLK1424 U3/GU: 2′OMe-modified PLK1424 siRNA, SEQ ID NO:53/54 (chain 1 AGANCACCCNCCUNAAAUANN; chain 2 UAUUUAANGAGGGUGANCUNN; 2'-OMe modifications, further chemistry not given here)
cell viability / killing of human tumor cells (HT29 cells): as potent as the unmodified PLK1424 sequence

mPLK1607: siRNA to mouse PLK-1, SEQ ID NO:43/44 (chain 1 AGGACCACACCAAACUUAU; chain 2 AUAAGUUUGGUGUGGUCCU; listed as RNA, chemistry not given here)
cell viability / inhibition of cell growth (Neuro2A cells): most active mouse-specific PLK-1 siRNA sequences

PLK1556: siRNA to human PLK-1, SEQ ID NO:31/32 (chain 1 GCGCCAUCAUCCUGCACCU; chain 2 AGGUGCAGGAUGAUGGCGC; listed as RNA, chemistry not given here)
cell viability / killing of human tumor cells (HT29 cells): effective at killing human tumor cells

PLK1242: siRNA to human PLK-1, SEQ ID NO:27/28 (chain 1 GGUGGACUAUUCGGACAAG; chain 2 CUUGUCCGAAUAGUCCACC; listed as RNA, chemistry not given here)
cell viability / killing of human tumor cells (HT29 cells): effective at killing human tumor cells

mPLK1424: siRNA to mouse PLK-1, SEQ ID NO:35/36 (chain 1 AGAUCACUCUCCUCAACUA; chain 2 UAGUUGAGGAGAGUGAUCU; listed as RNA, chemistry not given here)
cell viability / inhibition of cell growth (Neuro2A cells): most active mouse-specific siRNA sequences

PLK773 G/GU: 2′OMe-modified PLK773 siRNA, SEQ ID NO:64/63 (chain 1 AGACCUACCUCCGGAUCAANN; chain 2 UUGAUCCGGAGGUAGGUCUNN; chain 1: 2'-O-methyl at 2, 13, other sugars, backbone and the base at N not given here; chain 2: 2'-O-methyl at 9, 12, 17, other sugars, backbone and the base at N not given here; 3' NN overhangs: dT or U ribonucleotide)
cell viability / killing of human tumor cells (HT29 cells): more potent than the unmodified PLK1424 sequence

PLK1424 U4/GU: 2′OMe-modified PLK1424 siRNA, SEQ ID NO:57/54 (chain 1 AGANCACCCNCCUNAAANANN; chain 2 UAUUUAANGAGGGUGANCUNN; 2'-OMe modifications, further chemistry not given here)
cell viability / killing of human tumor cells (HT29 cells): as potent as the unmodified PLK1424 sequence

PLK694: siRNA to human PLK-1, SEQ ID NO:9/10 (chain 1 GUGGAUGUGUGGUCCAUUG; chain 2 CAAUGGACCACACAUCCAC; listed as RNA, chemistry not given here)
cell viability / killing of human tumor cells (HT29 cells): effective at killing human tumor cells

PLK1195: siRNA to human PLK-1, SEQ ID NO:19/20 (chain 1 GAGGCUGAGGAUCCUGCCU; chain 2 AGGCAGGAUCCUCAGCCUC; listed as RNA, chemistry not given here)
cell viability / killing of human tumor cells (HT29 cells): effective at killing human tumor cells

mPLK1668: siRNA to mouse PLK-1, SEQ ID NO:49/50 (chain 1 GAGGGACUUCCAAACGUAC; chain 2 GUACGUUUGGAAGUCCCUC; listed as RNA, chemistry not given here)
cell viability / inhibition of cell growth (Neuro2A cells): most active mouse-specific PLK-1 siRNA sequences

PLK1425 3/5: 2′OMe-modified PLK1425 siRNA, SEQ ID NO:67/68 (chain 1 GANCACCCUCCUNAAANAUNN; chain 2 AUAUUUAANGAGGGUGANCNN; 2'-OMe modifications, chemistry not fully specified)
cell viability / killing of human tumor cells (HT29 cells): more potent than the unmodified PLK1425 sequence

PLK1081: siRNA to human PLK-1, SEQ ID NO:17/18 (chain 1 CCAGUGGUUCGAGAGACAG; chain 2 CUGUCUCUCGAACCACUGG; listed as RNA, chemistry not given here)
cell viability / killing of human tumor cells (HT29 cells): inhibited the growth of human tumor cells, but at higher siRNA concentrations
